In patent US9833497B2, “Human originated EGF domain proteins and use of the same” (CHENGDU SOURCEBIO LIMITED-LIABILITY COMPANY, priority 2013, dated 2017):

How the values were obtained:
Format in all cases: cell-based
Proteus vulgaris = assay: MIC against Gram-negative bacteria: Proteus vulgaris; conditions: for MIC against P. vulgaris: Proteus vulgaris
Method in brief: (§1)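 Bacteria grown in LB at 37° C to McFarland 0.5, resuspended and seeded at 5×10^5 CFU/mL in 96-well plates. Purified human EGF-domain proteins two-fold serially diluted, triplicate wells; cultured at 37° C, shaking 175 rpm. MIC = lowest protein concentration with no growth.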

Pseudomonas aeruginosa = assay: MIC against Gram-negative bacteria: Pseudomonas aeruginosa; conditions: for MIC against P. aeruginosa: Pseudomonas aeruginosa
Method in brief: as §1

Enterobacter cloacae = assay: MIC against Gram-negative bacteria: Enterobacter cloacae; conditions: for MIC against E. cloacae: Enterobacter cloacae
Method in brief: as §1

Proteus mirabilis = assay: MIC against Gram-negative bacteria: Proteus mirabilis; conditions: for MIC against P. mirabilis: Proteus mirabilis
Method in brief: as §1

Klebsiella pneumonia = assay: MIC against Gram-negative bacteria: Klebsiella pneumonia; conditions: for MIC against K. pneumonia: Klebsiella pneumonia
Method in brief: as §1

E. coli BL21 = assay: MIC against Gram-negative bacteria: E. coli BL21
Method in brief: as §1

Citrobacter diversus = assay: MIC against Gram-negative bacteria: Citrobacter diversus; conditions: for MIC against C. diversus: Citrobacter diversus
Method in brief: as §1

Aeromonas hydrophila = assay: MIC against Gram-negative bacteria: Aeromonas hydrophila; conditions: for MIC against A. hydrophila: Aeromonas hydrophila
Method in brief: as §1

Moraxella catarrhalis = assay: MIC against Gram-negative bacteria: Moraxella catarrhalis; conditions: for MIC against M. catarrhalis: Moraxella catarrhalis
Method in brief: as §1

Serratia marcescens = assay: MIC against Gram-negative bacteria: Serratia marcescens; conditions: for MIC against S. marcescens: Serratia marcescens
Method in brief: as §1

E. coli DH5α = assay: Antibacterial activity: MIC and growth curve against E. coli DH5α in 96-well plate; conditions: minimal inhibitory concentration against E. coli DH5α; 96-well plate, 5×10^5 CFU/mL, 37° C., judged after 8 h
Method in brief: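 MIC taken as lowest protein level with no bacterial growth, tracked by A600 every 30 min during 37 °C, 175 rpm culture. Two-fold protein series 50-12.5 μg/mL final, triplicate wells, against 5×10^5 CFU/mL of LB-washed mid-log cells.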

[1] = 96-well plate, 5×10^5 CFU/mL, 37° C., 10 h
[2] = P. vulgaris, 10 h cultivation at 37° C., 5×10^5 CFU/mL
[3] = P. aeruginosa, 10 h cultivation at 37° C., 5×10^5 CFU/mL
[4] = E. cloacae, 10 h cultivation at 37° C., 5×10^5 CFU/mL
[5] = P. mirabilis, 10 h cultivation at 37° C., 5×10^5 CFU/mL
[6] = K. pneumonia, 10 h cultivation at 37° C., 5×10^5 CFU/mL
[7] = E. coli BL21, 10 h cultivation at 37° C., 5×10^5 CFU/mL
[8] = C. diversus, 10 h cultivation at 37° C., 5×10^5 CFU/mL
[9] = A. hydrophila, 10 h cultivation at 37° C., 5×10^5 CFU/mL
[10] = M. catarrhalis, 10 h cultivation at 37° C., 5×10^5 CFU/mL
[11] = S. marcescens, 10 h cultivation at 37° C., 5×10^5 CFU/mL
[12] = 5×10^5 CFU/mL, 10 h cultivation at 37° C.
[13] = 10 h cultivation at 37° C., 5×10^5 CFU/mL, two-fold serial dilution

Substance: PRT636 (DINECEHPGLCGPQGECLNTEGSFHCVCQQGFSISADGRTCE; listed as Homo sapiens)
- MIC P. vulgaris (Proteus vulgaris; [1]): 25 µg/mL
- MIC P. aeruginosa (Pseudomonas aeruginosa; [1]): 50 µg/mL
- MIC E. cloacae (Enterobacter cloacae; [1]): 12.5 µg/mL
- MIC P. mirabilis (Proteus mirabilis; [1]): 12.5 µg/mL
- MIC K. pneumonia (Klebsiella pneumonia; [1]): 25 µg/mL
- MIC E. coli BL21 (E. coli BL21; [1]): 25 µg/mL
- MIC C. diversus (Citrobacter diversus; [1]): 50 µg/mL
- MIC A. hydrophila (Aeromonas hydrophila; [1]): 25 µg/mL
- MIC M. catarrhalis (Moraxella catarrhalis; [1]): 25 µg/mL
- MIC S. marcescens (Serratia marcescens; [1]): 50 µg/mL
- MIC (E. coli DH5α): 12.5 µg/mL

Substance: PRT1031 (MCVTYHNGTGYCKCPEGFLGEYCQ; listed as Homo sapiens)
- MIC (Proteus vulgaris; P. vulgaris, 10 h cultivation at 37° C.): 50 µg/mL
- MIC (Pseudomonas aeruginosa; P. aeruginosa, 10 h cultivation at 37° C.): 12.5 µg/mL
- MIC (Enterobacter cloacae; E. cloacae, 10 h cultivation at 37° C.): 12.5 µg/mL
- MIC (Proteus mirabilis; P. mirabilis, 10 h cultivation at 37° C.): 12.5 µg/mL
- MIC (Klebsiella pneumonia; K. pneumonia, 10 h cultivation at 37° C.): 50 µg/mL
- MIC (E. coli BL21; E. coli BL21, 10 h cultivation at 37° C.): 50 µg/mL
- MIC (Citrobacter diversus; C. diversus, 10 h cultivation at 37° C.): 25 µg/mL
- MIC (Aeromonas hydrophila; A. hydrophila, 10 h cultivation at 37° C.): 50 µg/mL
- MIC (Moraxella catarrhalis; M. catarrhalis, 10 h cultivation at 37° C.): 12.5 µg/mL
- MIC (Serratia marcescens; S. marcescens, 10 h cultivation at 37° C.): 12.5 µg/mL
- MIC (E. coli DH5α): 12.5 µg/mL

Substance: PRT1323 (DCIECPGGAGSPCNGRGSCAEGMEGNGTCSCQEGFGGTACE; listed as Homo sapiens)
- MIC against P. vulgaris (Proteus vulgaris; [1]): 50 µg/mL
- MIC against P. aeruginosa (Pseudomonas aeruginosa; [1]): 12.5 µg/mL
- MIC against E. cloacae (Enterobacter cloacae; [1]): 12.5 µg/mL
- MIC against P. mirabilis (Proteus mirabilis; [1]): 25 µg/mL
- MIC against K. pneumonia (Klebsiella pneumonia; [1]): 25 µg/mL
- MIC against E. coli BL21 (E. coli BL21; E. coli BL21, 96-well plate, 5×10^5 CFU/mL, 37° C., 10 h): 25 µg/mL
- MIC against C. diversus (Citrobacter diversus; [1]): 50 µg/mL
- MIC against A. hydrophila (Aeromonas hydrophila; [1]): 12.5 µg/mL
- MIC against M. catarrhalis (Moraxella catarrhalis; [1]): 12.5 µg/mL
- MIC against S. marcescens (Serratia marcescens; [1]): 12.5 µg/mL
- MIC (E. coli DH5α): 12.5 µg/mL

Substance: PRT440 (DVNECRQNVCRPDQHCKNTRGGYKCIDLCPNGMTKAENGTCI; listed as Homo sapiens)
- MIC (Proteus vulgaris; [2]): 50 µg/mL
- MIC (Pseudomonas aeruginosa; [3]): 50 µg/mL
- MIC (Enterobacter cloacae; [4]): 50 µg/mL
- MIC (Proteus mirabilis; [5]): 25 µg/mL
- MIC (Klebsiella pneumonia; [6]): 12.5 µg/mL
- MIC (E. coli BL21; [7]): 12.5 µg/mL
- MIC (Citrobacter diversus; [8]): 50 µg/mL
- MIC (Aeromonas hydrophila; [9]): 12.5 µg/mL
- MIC (Moraxella catarrhalis; [10]): 12.5 µg/mL
- MIC (Serratia marcescens; [11]): 25 µg/mL
- MIC (E. coli DH5α): 50 µg/mL

Substance: PRT1409 (RACHPRCAEHGTCKDGKCECSQGWNGEHCT; listed as Homo sapiens)
- MIC against P. vulgaris (Proteus vulgaris; [12]): 12.5 µg/mL
- MIC against P. aeruginosa (Pseudomonas aeruginosa; [12]): 12.5 µg/mL
- MIC against E. cloacae (Enterobacter cloacae; [12]): 12.5 µg/mL
- MIC against P. mirabilis (Proteus mirabilis; [12]): 50 µg/mL
- MIC against K. pneumonia (Klebsiella pneumonia; [12]): 12.5 µg/mL
- MIC against E. coli BL21 (E. coli BL21; E. coli BL21, 5×10^5 CFU/mL, 10 h cultivation at 37° C.): 12.5 µg/mL
- MIC against C. diversus (Citrobacter diversus; [12]): 12.5 µg/mL
- MIC against A. hydrophila (Aeromonas hydrophila; [12]): 12.5 µg/mL
- MIC against M. catarrhalis (Moraxella catarrhalis; [12]): 12.5 µg/mL
- MIC against S. marcescens (Serratia marcescens; [12]): 50 µg/mL
- MIC (E. coli DH5α): 12.5 µg/mL

Substance: PRT1106 (NTDECASQPCLHGGLCVDGENRYSCNCTGSGFTGTHCE; listed as Homo sapiens)
- MIC P. vulgaris (Proteus vulgaris; [13]): 12.5 µg/mL
- MIC P. aeruginosa (Pseudomonas aeruginosa; [13]): 12.5 µg/mL
- MIC E. cloacae (Enterobacter cloacae; [13]): 50 µg/mL
- MIC P. mirabilis (Proteus mirabilis; [13]): 25 µg/mL
- MIC K. pneumonia (Klebsiella pneumonia; [13]): 25 µg/mL
- MIC E. coli BL21 (E. coli BL21; [13]): 25 µg/mL
- MIC C. diversus (Citrobacter diversus; [13]): 25 µg/mL
- MIC A. hydrophila (Aeromonas hydrophila; [13]): 12.5 µg/mL
- MIC M. catarrhalis (Moraxella catarrhalis; [13]): 50 µg/mL
- MIC S. marcescens (Serratia marcescens; [13]): 50 µg/mL
- MIC (E. coli DH5α): 25 µg/mL

Substance: PRT180 (DLDDCAGRACANGGTCVEGGGAHRCSCALGFGGRDCR; listed as Homo sapiens)
- MIC (μg/mL) P. vulgaris (Proteus vulgaris; [2]): 25 µg/mL
- MIC (μg/mL) P. aeruginosa (Pseudomonas aeruginosa; [3]): 12.5 µg/mL
- MIC (μg/mL) E. cloacae (Enterobacter cloacae; [4]): 50 µg/mL
- MIC (μg/mL) P. mirabilis (Proteus mirabilis; [5]): 50 µg/mL
- MIC (μg/mL) K. pneumonia (Klebsiella pneumonia; [6]): 12.5 µg/mL
- MIC (μg/mL) E. coli BL21 (E. coli BL21; [7]): 12.5 µg/mL
- MIC (μg/mL) C. diversus (Citrobacter diversus; [8]): 12.5 µg/mL
- MIC (μg/mL) A. hydrophila (Aeromonas hydrophila; [9]): 25 µg/mL
- MIC (μg/mL) M. catarrhalis (Moraxella catarrhalis; [10]): 25 µg/mL
- MIC (μg/mL) S. marcescens (Serratia marcescens; [11]): 12.5 µg/mL
- MIC (E. coli DH5α): 12.5 µg/mL
